{"source": "paper PMC4979471", "about": "(Cell Death Discovery, 2015)", "assay_in_all_cases": "Kinase selectivity, P33-radiolabeled assay", "type_in_all_cases": "biochemical", "conditions_in_all_cases": "10 μM ATP", "key": {"PLK2": {"molecular_target": "T1, PLK2 (Homo sapiens, UniProt Q9NYY3)", "T1 construct": "purchased Reaction Biology Corp", "T1 sequence (Q9NYY3 whole entry)": "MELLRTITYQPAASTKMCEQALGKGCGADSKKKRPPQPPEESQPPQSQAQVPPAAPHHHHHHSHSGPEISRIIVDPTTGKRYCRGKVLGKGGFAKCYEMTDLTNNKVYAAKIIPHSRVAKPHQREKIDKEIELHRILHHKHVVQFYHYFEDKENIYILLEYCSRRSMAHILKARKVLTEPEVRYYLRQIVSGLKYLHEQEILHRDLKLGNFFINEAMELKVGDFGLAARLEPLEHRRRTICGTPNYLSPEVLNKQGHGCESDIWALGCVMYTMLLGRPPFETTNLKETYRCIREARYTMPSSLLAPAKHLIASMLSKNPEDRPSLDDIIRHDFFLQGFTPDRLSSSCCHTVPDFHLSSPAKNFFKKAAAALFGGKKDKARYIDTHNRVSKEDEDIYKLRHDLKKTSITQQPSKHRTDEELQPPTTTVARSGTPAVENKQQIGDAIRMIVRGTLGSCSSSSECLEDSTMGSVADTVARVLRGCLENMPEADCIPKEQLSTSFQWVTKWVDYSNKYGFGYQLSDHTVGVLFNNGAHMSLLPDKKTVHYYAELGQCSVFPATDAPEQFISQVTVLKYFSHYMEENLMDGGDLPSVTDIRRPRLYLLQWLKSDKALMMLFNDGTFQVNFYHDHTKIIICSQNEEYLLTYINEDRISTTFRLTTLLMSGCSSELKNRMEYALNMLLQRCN", "outline": "(§1)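 Duplicate single-concentration testing used 10 μM compound. The ATP concentration was also 10 μM.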"}, "IRAK4": {"molecular_target": "T2, IRAK4 (Homo sapiens, UniProt Q9NWZ3)", "T2 construct": "purchased Reaction Biology Corp", "T2 sequence (Q9NWZ3 1-460)": "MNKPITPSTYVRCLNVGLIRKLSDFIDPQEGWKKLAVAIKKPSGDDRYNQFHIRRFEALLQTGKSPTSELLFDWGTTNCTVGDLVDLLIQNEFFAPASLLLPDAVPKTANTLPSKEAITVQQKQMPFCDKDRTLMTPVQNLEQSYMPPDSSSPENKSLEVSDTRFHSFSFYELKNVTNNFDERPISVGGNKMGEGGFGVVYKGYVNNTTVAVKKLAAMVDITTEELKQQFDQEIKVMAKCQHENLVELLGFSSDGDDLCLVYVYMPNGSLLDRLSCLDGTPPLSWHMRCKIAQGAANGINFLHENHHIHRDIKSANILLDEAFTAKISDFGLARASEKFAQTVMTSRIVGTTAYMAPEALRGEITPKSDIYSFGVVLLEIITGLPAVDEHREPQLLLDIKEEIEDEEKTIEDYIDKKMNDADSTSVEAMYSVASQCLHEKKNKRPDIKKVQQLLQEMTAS", "outline": "as §1"}, "PKCnu/PRKD3": {"molecular_target": "T3, PKCnu/PRKD3 (Homo sapiens, UniProt O94806)", "T3 construct": "purchased Reaction Biology Corp", "T3 sequence (O94806 1-890)": "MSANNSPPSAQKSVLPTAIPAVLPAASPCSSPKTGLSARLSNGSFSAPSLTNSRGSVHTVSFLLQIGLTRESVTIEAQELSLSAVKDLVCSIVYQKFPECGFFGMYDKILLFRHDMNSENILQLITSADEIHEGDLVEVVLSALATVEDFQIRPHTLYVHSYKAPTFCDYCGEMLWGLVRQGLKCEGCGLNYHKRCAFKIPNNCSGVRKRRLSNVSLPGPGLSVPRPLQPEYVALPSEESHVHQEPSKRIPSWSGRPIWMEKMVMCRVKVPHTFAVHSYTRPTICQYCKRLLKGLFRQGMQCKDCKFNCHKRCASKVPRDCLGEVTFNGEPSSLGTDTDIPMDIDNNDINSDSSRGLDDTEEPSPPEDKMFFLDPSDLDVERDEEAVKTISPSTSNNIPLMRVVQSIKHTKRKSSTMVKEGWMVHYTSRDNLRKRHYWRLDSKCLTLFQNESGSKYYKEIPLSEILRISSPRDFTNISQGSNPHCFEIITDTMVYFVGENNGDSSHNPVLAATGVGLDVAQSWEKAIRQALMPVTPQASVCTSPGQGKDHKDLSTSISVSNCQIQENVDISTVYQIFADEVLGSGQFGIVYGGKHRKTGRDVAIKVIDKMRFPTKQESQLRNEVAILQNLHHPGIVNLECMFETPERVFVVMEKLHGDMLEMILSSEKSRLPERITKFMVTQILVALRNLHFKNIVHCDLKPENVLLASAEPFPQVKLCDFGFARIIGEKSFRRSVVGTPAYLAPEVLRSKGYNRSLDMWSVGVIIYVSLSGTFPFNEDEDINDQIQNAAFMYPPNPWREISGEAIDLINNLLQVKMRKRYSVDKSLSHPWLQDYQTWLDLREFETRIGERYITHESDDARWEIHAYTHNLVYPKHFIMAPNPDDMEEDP", "outline": "as §1"}, "c-Src": {"molecular_target": "T4, c-Src (Homo sapiens, UniProt P12931)", "T4 construct": "purchased Reaction Biology Corp", "T4 sequence (P12931 whole entry)": "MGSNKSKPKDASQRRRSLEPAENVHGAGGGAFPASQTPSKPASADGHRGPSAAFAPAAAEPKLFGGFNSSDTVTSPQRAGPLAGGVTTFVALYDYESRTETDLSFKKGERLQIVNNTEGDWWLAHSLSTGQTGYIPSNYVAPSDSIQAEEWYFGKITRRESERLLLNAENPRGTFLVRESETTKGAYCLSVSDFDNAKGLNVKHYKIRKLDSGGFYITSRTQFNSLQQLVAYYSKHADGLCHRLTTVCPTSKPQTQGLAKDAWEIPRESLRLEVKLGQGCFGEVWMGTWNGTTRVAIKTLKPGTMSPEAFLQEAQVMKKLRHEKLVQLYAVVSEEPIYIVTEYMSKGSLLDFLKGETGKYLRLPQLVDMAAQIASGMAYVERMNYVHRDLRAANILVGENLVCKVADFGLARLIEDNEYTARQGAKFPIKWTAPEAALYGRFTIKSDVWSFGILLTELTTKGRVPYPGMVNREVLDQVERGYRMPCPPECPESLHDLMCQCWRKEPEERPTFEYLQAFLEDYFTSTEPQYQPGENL", "outline": "as §1"}, "KHS/MAP4K5": {"molecular_target": "T5, KHS/MAP4K5 (Homo sapiens, UniProt Q9Y4K4)", "T5 construct": "purchased Reaction Biology Corp", "T5 sequence (Q9Y4K4 whole entry)": "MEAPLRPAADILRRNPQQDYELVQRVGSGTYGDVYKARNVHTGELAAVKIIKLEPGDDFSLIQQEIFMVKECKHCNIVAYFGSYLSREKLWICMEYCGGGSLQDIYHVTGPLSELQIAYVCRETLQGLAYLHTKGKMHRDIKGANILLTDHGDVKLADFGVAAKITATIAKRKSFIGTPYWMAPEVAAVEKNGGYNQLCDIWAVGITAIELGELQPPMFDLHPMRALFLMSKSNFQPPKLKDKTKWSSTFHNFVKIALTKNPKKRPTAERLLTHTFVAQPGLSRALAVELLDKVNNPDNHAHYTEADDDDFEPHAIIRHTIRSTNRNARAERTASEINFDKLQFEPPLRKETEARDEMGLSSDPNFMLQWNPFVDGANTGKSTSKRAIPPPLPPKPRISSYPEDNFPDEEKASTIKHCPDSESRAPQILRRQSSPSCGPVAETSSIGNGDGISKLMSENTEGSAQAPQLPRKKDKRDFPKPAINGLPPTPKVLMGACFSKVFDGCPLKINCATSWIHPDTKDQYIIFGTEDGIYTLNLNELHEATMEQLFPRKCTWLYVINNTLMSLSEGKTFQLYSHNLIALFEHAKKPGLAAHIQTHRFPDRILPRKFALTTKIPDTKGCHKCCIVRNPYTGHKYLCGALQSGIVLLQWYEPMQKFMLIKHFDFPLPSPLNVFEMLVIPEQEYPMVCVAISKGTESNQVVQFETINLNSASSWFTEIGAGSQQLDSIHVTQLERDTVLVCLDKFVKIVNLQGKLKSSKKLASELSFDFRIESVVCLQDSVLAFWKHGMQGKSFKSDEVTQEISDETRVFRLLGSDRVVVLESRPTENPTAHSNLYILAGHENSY", "outline": "as §1"}, "ALK2/ACVR1": {"molecular_target": "T6, ALK2/ACVR1 (Homo sapiens, UniProt Q04771)", "T6 construct": "purchased Reaction Biology Corp", "T6 sequence (Q04771 21-509)": "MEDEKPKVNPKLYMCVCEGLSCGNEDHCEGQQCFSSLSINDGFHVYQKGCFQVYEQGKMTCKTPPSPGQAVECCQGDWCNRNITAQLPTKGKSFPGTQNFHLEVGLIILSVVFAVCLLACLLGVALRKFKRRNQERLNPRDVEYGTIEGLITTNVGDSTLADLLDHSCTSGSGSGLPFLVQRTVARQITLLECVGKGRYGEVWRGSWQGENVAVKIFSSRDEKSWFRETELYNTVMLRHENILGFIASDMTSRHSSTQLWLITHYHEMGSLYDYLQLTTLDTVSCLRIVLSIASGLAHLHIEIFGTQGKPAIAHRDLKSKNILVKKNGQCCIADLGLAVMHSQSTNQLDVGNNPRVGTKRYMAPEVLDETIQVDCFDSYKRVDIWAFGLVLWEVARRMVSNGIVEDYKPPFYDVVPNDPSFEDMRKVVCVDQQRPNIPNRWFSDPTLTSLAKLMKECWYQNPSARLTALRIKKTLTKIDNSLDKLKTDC", "outline": "as §1"}, "RSK2": {"molecular_target": "T7, RSK2 (Homo sapiens, UniProt P51812)", "T7 construct": "purchased Reaction Biology Corp", "T7 sequence (P51812 whole entry)": "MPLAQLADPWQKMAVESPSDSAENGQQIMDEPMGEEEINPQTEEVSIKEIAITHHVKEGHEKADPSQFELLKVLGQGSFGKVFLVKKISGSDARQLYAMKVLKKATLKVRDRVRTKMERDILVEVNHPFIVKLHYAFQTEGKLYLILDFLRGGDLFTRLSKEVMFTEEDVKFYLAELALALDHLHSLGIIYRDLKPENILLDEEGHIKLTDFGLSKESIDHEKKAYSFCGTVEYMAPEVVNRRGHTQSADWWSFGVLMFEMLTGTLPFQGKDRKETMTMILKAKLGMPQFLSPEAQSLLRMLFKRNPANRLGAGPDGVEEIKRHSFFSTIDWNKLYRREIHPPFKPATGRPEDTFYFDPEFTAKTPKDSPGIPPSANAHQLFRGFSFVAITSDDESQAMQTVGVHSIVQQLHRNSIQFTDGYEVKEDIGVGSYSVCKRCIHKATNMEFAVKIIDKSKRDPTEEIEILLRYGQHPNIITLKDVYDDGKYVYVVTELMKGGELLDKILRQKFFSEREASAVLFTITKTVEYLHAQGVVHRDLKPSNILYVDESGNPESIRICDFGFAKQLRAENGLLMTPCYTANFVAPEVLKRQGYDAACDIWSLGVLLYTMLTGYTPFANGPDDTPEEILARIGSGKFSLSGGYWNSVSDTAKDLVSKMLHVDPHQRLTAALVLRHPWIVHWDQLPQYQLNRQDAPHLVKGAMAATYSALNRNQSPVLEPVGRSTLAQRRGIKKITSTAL", "outline": "as §1"}, "SYK": {"molecular_target": "T8, SYK (Homo sapiens, UniProt P43405)", "T8 construct": "purchased Reaction Biology Corp", "outline": "as §1"}, "[1]": {"conditions": "read-out: % Enzyme Activity (relative to DMSO controls) AVG"}, "[2]": {"conditions": "read-out: % Enzyme Activity (relative to DMSO controls) Data 1"}, "[3]": {"conditions": "read-out: % Enzyme Activity (relative to DMSO controls) Data 2"}}, "note": "Read-outs that look alike come from different tables or passages of the source.", "data": [{"molecule": "CC(C)(C)C(=O)N1N=CC[C@H]1c1ccccc1", "note": "[GSK′963]", "values": [{"measurement": "remaining activity at 10 µM", "setting": "PLK2; [1]", "result": 110, "unit": "%"}, {"measurement": "remaining activity at 10 µM", "setting": "PLK2; [2]", "result": 108, "unit": "%"}, {"measurement": "remaining activity at 10 µM", "setting": "PLK2; [3]", "result": 111, "unit": "%"}, {"measurement": "remaining activity at 10 µM", "setting": "IRAK4; [1]", "result": 115, "unit": "%"}, {"measurement": "remaining activity at 10 µM", "setting": "IRAK4; [2]", "result": 116, "unit": "%"}, {"measurement": "remaining activity at 10 µM", "setting": "IRAK4; [3]", "result": 114, "unit": "%"}, {"measurement": "remaining activity at 10 µM", "setting": "PKCnu/PRKD3; [1]", "result": 101, "unit": "%"}, {"measurement": "remaining activity at 10 µM", "setting": "PKCnu/PRKD3; [2]", "result": 103, "unit": "%"}, {"measurement": "remaining activity at 10 µM", "setting": "PKCnu/PRKD3; [3]", "result": 100, "unit": "%"}, {"measurement": "remaining activity at 10 µM", "setting": "c-Src; [1]", "result": 109, "unit": "%"}, {"measurement": "remaining activity at 10 µM", "setting": "c-Src; [2]", "result": 112, "unit": "%"}, {"measurement": "remaining activity at 10 µM", "setting": "c-Src; [3]", "result": 106, "unit": "%"}, {"measurement": "remaining activity at 10 µM", "setting": "KHS/MAP4K5; [1]", "result": 93.8, "unit": "%"}, {"measurement": "remaining activity at 10 µM", "setting": "KHS/MAP4K5; [2]", "result": 91.7, "unit": "%"}, {"measurement": "remaining activity at 10 µM", "setting": "KHS/MAP4K5; [3]", "result": 96, "unit": "%"}, {"measurement": "remaining activity at 10 µM", "setting": "ALK2/ACVR1; [1]", "result": 98.1, "unit": "%"}, {"measurement": "remaining activity at 10 µM", "setting": "ALK2/ACVR1; [2]", "result": 94, "unit": "%"}, {"measurement": "remaining activity at 10 µM", "setting": "ALK2/ACVR1; [3]", "result": 102, "unit": "%"}, {"measurement": "remaining activity at 10 µM", "setting": "RSK2; [1]", "result": 106, "unit": "%"}, {"measurement": "remaining activity at 10 µM", "setting": "RSK2; [2]", "result": 107, "unit": "%"}, {"measurement": "remaining activity at 10 µM", "setting": "RSK2; [3]", "result": 106, "unit": "%"}, {"measurement": "remaining activity at 10 µM", "setting": "SYK; [1]", "result": 102, "unit": "%"}, {"measurement": "remaining activity at 10 µM", "setting": "SYK; [2]", "result": 106, "unit": "%"}, {"measurement": "remaining activity at 10 µM", "setting": "SYK; [3]", "result": 97.6, "unit": "%"}]}]}
